Measured values reported in patent US20030114445A1, “N3-substituted 6-anilinopyrimidines and methods to treat-Gram-positive bacterial and mycoplasmal infections” (priority 2001, published 2003).
≈ marks a conversion by molar mass, not a printed value. Where two headings read alike, the source gives them in different places.

Experiments:
S. aureus (Smith strain) = test: Efficacy, ip dosing of mice infected with S. aureus; format: in vivo; conditions: suspensions in saline, 5 animals, FIG. 2
Source text: Compounds 12, 19, 26, and 29 were given by the intraperitoneal (ip) route as suspensions in saline to mice previously infected with S. aureus (Smith strain). Vancomycin was used as a positive drug control and saline was used as a negative vehicle control.

E. fecium = test: Inhibition of bacterial growth on agar plates (MIC); format: cell-based; conditions: 37° C., 24 hours
Description: (§1) Each compound is assayed against a panel of Bacillus, Enterococcus and Staphylococcus, and a Gram-negative bacterium Escherichia coli as negative control, grown in appropriate plate media solidified with 1.3% agar-agar. Stock solutions of the compounds in dimethylsulfoxide or water, depending on solubility, are added to sterile medium at a temperature of 60° C. […] One tenth mL of diluted bacteria containing 500-1000 colony-forming units (CFU) are plated and spread, and the plates incubated at 37° C. for 24 hours. MIC (minimum inhibitory concentration) is equivalent to the lowest concentration at which growth, i.e. colony formation, is not observed.

E. fecalis = test: as above; format: cell-based; conditions: 37° C., 24 hours
Description: as §1

B. subtilis = test: as above; format: cell-based; conditions: Bacillus subtilis, 37° C., 24 hours
Description: as §1

S.aureus (Smith) = test: as above; format: cell-based; conditions: Staphylococcus aureus, 37° C., 24 hours
Description: as §1

B.subtilis pol IIIC = B.subtilis pol IIIC (Bacillus subtilis, UniProt P13267); test: biochemical
Sequence of B.subtilis pol IIIC (P13267 whole entry): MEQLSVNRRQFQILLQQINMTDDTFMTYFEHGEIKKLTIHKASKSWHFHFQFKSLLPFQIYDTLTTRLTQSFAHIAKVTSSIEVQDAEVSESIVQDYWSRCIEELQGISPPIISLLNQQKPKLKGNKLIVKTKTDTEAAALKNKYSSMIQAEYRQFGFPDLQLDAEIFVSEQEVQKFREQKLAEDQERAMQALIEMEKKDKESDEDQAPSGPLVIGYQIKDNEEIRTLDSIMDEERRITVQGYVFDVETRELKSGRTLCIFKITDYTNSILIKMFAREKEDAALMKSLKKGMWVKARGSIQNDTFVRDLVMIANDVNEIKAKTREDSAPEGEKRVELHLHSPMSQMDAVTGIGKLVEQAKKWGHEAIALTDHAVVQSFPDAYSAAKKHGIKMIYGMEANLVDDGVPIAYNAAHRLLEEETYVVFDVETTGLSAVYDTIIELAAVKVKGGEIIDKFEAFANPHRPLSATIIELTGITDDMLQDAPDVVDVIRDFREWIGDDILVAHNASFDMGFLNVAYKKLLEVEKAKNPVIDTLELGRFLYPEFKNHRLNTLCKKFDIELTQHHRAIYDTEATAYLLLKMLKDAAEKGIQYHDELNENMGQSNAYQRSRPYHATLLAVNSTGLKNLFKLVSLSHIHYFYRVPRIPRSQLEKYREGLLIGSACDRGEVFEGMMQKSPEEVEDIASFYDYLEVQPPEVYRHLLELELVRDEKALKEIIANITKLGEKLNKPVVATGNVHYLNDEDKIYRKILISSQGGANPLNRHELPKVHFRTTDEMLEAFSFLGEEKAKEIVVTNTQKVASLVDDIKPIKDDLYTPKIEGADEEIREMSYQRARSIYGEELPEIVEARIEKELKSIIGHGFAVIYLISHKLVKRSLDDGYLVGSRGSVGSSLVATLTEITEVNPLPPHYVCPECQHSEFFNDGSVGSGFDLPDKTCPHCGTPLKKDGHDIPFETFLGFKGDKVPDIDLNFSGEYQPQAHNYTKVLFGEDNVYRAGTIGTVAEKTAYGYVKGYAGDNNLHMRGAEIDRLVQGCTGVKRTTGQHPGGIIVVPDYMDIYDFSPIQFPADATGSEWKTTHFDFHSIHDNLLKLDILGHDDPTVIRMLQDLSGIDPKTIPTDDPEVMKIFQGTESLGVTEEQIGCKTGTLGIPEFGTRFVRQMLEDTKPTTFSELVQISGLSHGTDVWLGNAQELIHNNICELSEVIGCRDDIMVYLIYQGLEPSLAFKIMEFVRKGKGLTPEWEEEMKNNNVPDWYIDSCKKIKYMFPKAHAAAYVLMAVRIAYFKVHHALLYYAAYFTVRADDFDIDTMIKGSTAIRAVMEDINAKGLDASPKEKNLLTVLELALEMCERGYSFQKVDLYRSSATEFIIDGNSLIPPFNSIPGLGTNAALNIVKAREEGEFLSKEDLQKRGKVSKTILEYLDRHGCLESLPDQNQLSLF
Description: DNA pol activity was assayed as described in Barnes et al., Nuc. Acids Res., 6:1203-19 (1979), using activated “nicked” calf-thymus DNA as template primer, 10 pM [^3H-methyl]-dTTP as the labelled dNTP substrate, and dATP, dCTP, and dGTP at 25 μM each.
Inhibitory activity of the compounds is determined by measuring the ability of the agent to inhibit enzyme-catalyzed incorporation of [^3H]-dTMP into nicked calf thymus DNA in the absence of the competitor dGTP or dATP (“truncated assay”) (see G. E. Wright and N. C. Brown, Inhibition of Bacillus subtilis DNA Polymerase III by Arylhydrazinopyrimidines: Novel Properties of 2-Thiouracil Derivatives, Biochim. Biophys. Acta 432:37-48 (1976)). Purified pol IIIC is added to a buffered solution containing Mg^2+, DTT, glycerol, nicked calf thymus DNA, saturating concentrations of dATP, dCTP, dTTP and [^3H]-dTTP. Reaction mixtures are incubated at 30° C. for 10 minutes, quenched and filtered, and radioactivity in the acid-insoluble material measured by scintillation counting. Experiments are done in triplicate. Inhibitors are assayed by addition of several dilutions of a stock solution of inhibitor (DMSO or water, depending on solubility) before enzyme addition. […] The truncated assay, i.e. exclusion of the competitive substrate dGTP or dATP, depending upon whether the compound is a uracil derivative or an isocytosine derivative, respectively, allows for the direct determination of apparent inhibitor constants (K,) in this assay system.

| Compound | animals protected (S. aureus (Smith strain)) | MIC (E. fecium) [mg/L] | MIC (E. fecalis) [mg/L] | MIC (B. subtilis) [mg/L] | MIC (S.aureus (Smith)) [mg/L] | Ki (B.subtilis pol IIIC) [µM] | Ki (B.subtilis pol IIIC; truncated assay, apparent inhibitor constant, read-out: K1 B.subtilis pol IIIC) [µM] |
| --- | --- | --- | --- | --- | --- | --- | --- |
| CCc1cc(Nc2cc(=O)n(CCOCCO)c(=O)[nH]2)ccc1C [Compound 29, 3-[2-(2-Hydroxyethoxy)ethyl]-6-(3-ethyl-4-methylanilino)uracil] | 4 of the 5 | 5 (≈ 15 µM) | 5 (≈ 15 µM) | < 1.25 | 5 (≈ 15 µM) | 0.125 | – |
| CCc1cc(Nc2cc(=O)n(CCCCCO)c(=O)[nH]2)ccc1C [Compound 26, 3-(5-Hydroxypentyl)-6-(3-ethyl-4-methylanilino)uracil] | 1 of the 5 | – | – | – | – | – | – |
| CCc1cc(Nc2cc(=O)n(C/C=C/C(=O)OC)c(=O)[nH]2)ccc1C [Compound 7, 3-[3-(Methoxycarbonyl)-2-propenyl]-6-(3-ethyl-4-methylanilino)uracil] | – | 5 (≈ 14.6 µM) | 20 (≈ 58.2 µM) | 2.5 (≈ 7.28 µM) | 10 (≈ 29.1 µM) | 0.32 | – |
| CCc1cc(Nc2cc(=O)n(CCOCCOCCO)c(=O)[nH]2)ccc1C [Compound 21, 3-{2-[2-Hydroxyethoxy-(2-ethoxy)]ethyl}-6-(3-ethyl-4-methylanilino)uracil] | – | 10 (≈ 26.5 µM) | 10 (≈ 26.5 µM) | 2.5 (≈ 6.62 µM) | 10 (≈ 26.5 µM) | 0.087 | – |
| CCc1cc(Nc2cc(=O)n(CCN3CCOCC3)c(=O)[nH]2)ccc1C [Compound 17, 3-[2-(N-morpholino)ethyl]-6-(3-ethyl-4-methylanilino)uracil] | – | 2.5 (≈ 6.97 µM) | 5 (≈ 13.9 µM) | < 1.25 | 5 (≈ 13.9 µM) | 0.09 | – |
| CCc1cc(Nc2cc(=O)n(CCCCO)c(=O)[nH]2)ccc1C [HB-EMAU, 3-(4-hydroxybutyl)-6-(3-ethyl-4-methylanilino)uracil, reference compound] | – | 5 (≈ 15.8 µM) | 5 (≈ 15.8 µM) | < 1.25 | 5 (≈ 15.8 µM) | 0.07 | – |
| CCc1cc(Nc2cc(=O)n(CCCCCN3CC=C(c4ccc(Cl)cc4)CC3)c(=O)[nH]2)ccc1C [Compound 76, 3-{5-[1-(4-(4-chlorophenyl)-1,2,3,6-tetrahydropyridinyl)]pentyl}-6-(3-ethyl-4-methylanilino)uracil] | – | 80 (≈ 158 µM) | 80 (≈ 158 µM) | 5 (≈ 9.86 µM) | 5 (≈ 9.86 µM) | 0.087 | – |
| CCc1cc(Nc2cc(=O)n(CCOCCOCc3ccccc3)c(=O)[nH]2)ccc1C [Compound 5, 3-[2-(2-Benzyloxyethoxy)ethyl]-6-(3-ethyl-4-methylanilino)uracil] | – | 10 (≈ 23.6 µM) | 5 (≈ 11.8 µM) | < 1.25 | 5 (≈ 11.8 µM) | 0.056 | – |
| CCc1cc(Nc2cc(=O)n(CC(C)CO)c(=O)[nH]2)ccc1C (centres unmarked) [Compound 25, 3-(3-Hydroxy-2-methylpropyl)-6-(3-ethyl-4-methylanilino)uracil] | – | 2.5 (≈ 7.88 µM) | 5 (≈ 15.8 µM) | < 1.25 | 5 (≈ 15.8 µM) | 0.11 | – |
| CCc1cc(Nc2cc(=O)n(CCCCNS(=O)(=O)c3cccs3)c(=O)[nH]2)ccc1C [Compound 48, 3-[4-(2-thienylsulfonylamino)butyl]-6-(3-ethyl-4-methylanilino)uracil] | – | 2.5 (≈ 5.4 µM) | 5 (≈ 10.8 µM) | 2.5 (≈ 5.4 µM) | 5 (≈ 10.8 µM) | 0.075 | – |
| CCc1cc(Nc2cc(=O)n(CCCCN3CCN(C(=O)c4ccco4)CC3)c(=O)[nH]2)ccc1C [Compound 40, 3-{4-[4-(2-Furoyl)piperazino]butyl}-6-(3-ethyl-4-methylanilino)uracil] | – | 10 (≈ 20.9 µM) | 5 (≈ 10.4 µM) | 5 (≈ 10.4 µM) | 5 (≈ 10.4 µM) | – | 0.043 |
| CCc1cc(Nc2cc(=O)n(CCCC(C)=O)c(=O)[nH]2)ccc1C [Compound 8, 3-(4-Oxopentyl)-6-(3-ethyl-4-methylanilino)uracil] | – | 5 (≈ 15.2 µM) | 5 (≈ 15.2 µM) | < 1.25 | 5 (≈ 15.2 µM) | 0.061 | – |
| CCc1cc(Nc2cc(=O)n(CCN(CC)CC)c(=O)[nH]2)ccc1C [Compound 14, 3-[2-(N,N-diethylamino)ethyl]-6-(3-ethyl-4-methylanilino)uracil] | – | 20 (≈ 58.1 µM) | 20 (≈ 58.1 µM) | 10 (≈ 29 µM) | 20 (≈ 58.1 µM) | 0.53 | – |
| CCc1cc(Nc2cc(=O)n(CCCCCNC[C@H]3CCNC3)c(=O)[nH]2)ccc1C [Compound 63, 3(S)-{5-[(3-pyrrolidinyl)methylamino]pentyl}-6-(3-ethyl-4methylanilino)uracil] | – | 80 (≈ 193 µM) | 80 (≈ 193 µM) | 20 (≈ 48.4 µM) | 40 (≈ 96.7 µM) | 0.112 | – |
| CCc1cc(Nc2cc(=O)n(CCCCNCCCCn3cc(C(=O)O)c(=O)c4cc(F)c(Cl)cc43)c(=O)[nH]2)ccc1C [Compound 74, 3-{4-[4-(3-carboxy-4-oxo-6-fluoro-7-chloroquinoline-1-yl)butylamino]butyl}-6-(3-ethyl-4-methylanilino)uracil] | – | 20 (≈ 32.7 µM) | 20 (≈ 32.7 µM) | 20 (≈ 32.7 µM) | 20 (≈ 32.7 µM) | 0.063 | – |
| CCc1cc(Nc2cc(=O)n(CCCCCn3cnc4c(=O)n(C)c(=O)n(C)c43)c(=O)[nH]2)ccc1C [Compound 67, 3-{5-[9-(1,3-dimethyl-2,6-dioxopurinyl)]pentyl}-6-(3-ethyl-4-methylanilino)uracil] | – | 10 (≈ 20.3 µM) | 20 (≈ 40.5 µM) | 2.5 (≈ 5.07 µM) | 10 (≈ 20.3 µM) | 0.06 | – |
| CCc1cc(Nc2cc(=O)n(CCCCOC(=O)CCl)c(=O)[nH]2)ccc1C [Compound 51, 3-[4-(2-chloroacetoxy)butyl]-6-(3-ethyl-4-methylanilino)uracil] | – | 5 (≈ 12.7 µM) | 2.5 (≈ 6.35 µM) | 0.313 (≈ 0.795 µM) | 10 (≈ 25.4 µM) | 0.04 | – |
| CCc1cc(Nc2cc(=O)n(CCCCNC(=O)CCl)c(=O)[nH]2)ccc1C [Compound 50, 3-{4-[(chloromethylcarbonyl)amino]butyl}-6-(3-ethyl-4-methylanilino)uracil] | – | 10 (≈ 25.5 µM) | 5 (≈ 12.7 µM) | 2.5 (≈ 6.36 µM) | 5 (≈ 12.7 µM) | 0.035 | – |
| CCc1cc(Nc2cc(=O)n(CCCCN3CCN(c4nc(C)cc(C(=O)O)n4)CC3)c(=O)[nH]2)ccc1C [Compound 60, 3-{4-[4-(6-methyl-4-carboxy-2-pyrimidinyl)-1-piperazinyl]butyl}-6-(3-ethyl-4-methylanilino)uracil] | – | 40 (≈ 76.7 µM) | 40 (≈ 76.7 µM) | 40 (≈ 76.7 µM) | 40 (≈ 76.7 µM) | 0.016 | – |
| CCCCC1(O)CCN(CCCCCn2c(=O)cc(Nc3ccc(C)c(CC)c3)[nH]c2=O)CC1 [Compound 71, 3-{5-[1-(4-hydroxy-4-butylpiperidinyl)]pentyl}-6-(3-ethyl-4-methylanilino)uracil] | – | 10 (≈ 21.2 µM) | 10 (≈ 21.2 µM) | 5 (≈ 10.6 µM) | 10 (≈ 21.2 µM) | 2.1 | – |
| CCc1cc(Nc2cc(=O)n(CCCCCN3CCc4c([nH]c5ccc(OC)cc45)C3)c(=O)[nH]2)ccc1C [Compound 69] | – | 20 (≈ 38.8 µM) | 20 (≈ 38.8 µM) | 5 (≈ 9.7 µM) | 10 (≈ 19.4 µM) | 0.109 | – |
| CCc1cc(Nc2cc(=O)n(CCN3CCN(C(=O)c4ccccc4)CC3)c(=O)[nH]2)ccc1C [Compound 39, 3-[2-(4-Benzoylpiperazino)ethyl]-6-(3-ethyl-4-methylanilino)uracil] | – | 5 (≈ 10.8 µM) | 10 (≈ 21.7 µM) | 2.5 (≈ 5.42 µM) | 10 (≈ 21.7 µM) | 0.077 | – |
| CCc1cc(Nc2cc(=O)n(CCCCCN3CC=C(c4cccc5ccsc45)CC3)c(=O)[nH]2)ccc1C [Compound 73, 3-{5-[1-(4-(benzo[b]thiophen-7-yl)-1,2,3,6-tetrahydropyridinyl)]pentyl}-6-(3-ethyl-4-methylanilino)uracil] | – | > 80 | > 80 | 10 (≈ 18.9 µM) | 10 (≈ 18.9 µM) | 0.08 | – |
| CCc1cc(Nc2cc(=O)n(CCCCNC(=O)C3CC3)c(=O)[nH]2)ccc1C [Compound 49, 3-{4-[(cyclopropylcarbonyl)amino]butyl}-6-(3-ethyl-4-methylanilino)uracil] | – | 2.5 (≈ 6.5 µM) | 5 (≈ 13 µM) | 5 (≈ 13 µM) | 5 (≈ 13 µM) | 0.082 | – |
| CCOC(=O)CCCCn1c(=O)cc(Nc2ccc(C)c(CC)c2)[nH]c1=O [Compound 6, 3-(4-Ethoxycarbonylbutyl)-6-(3-ethyl-4-methylanilino)uracil] | – | < 1.25 | 5 (≈ 13.4 µM) | < 1.25 | 2.5 (≈ 6.69 µM) | 0.076 | – |
